# Test results as given in patent US9051345B2, “Metalloinsertor complexes targeted to DNA mismatches” (CALIFORNIA INSTITUTE OF TECHNOLOGY, priority 2011, dated 2015).
# How the values were obtained:
# Type in all cases: cell-based, human
# HCT116N cells = assay: Cell death mode flow cytometry assay (YO-PRO-1 / PI dye exclusion); conditions: 20 μM, 72 hours, untreated 62±0.6%
# Description: (§1) To characterize the cell death occurring in response to rhodium treatment, a dye exclusion flow cytometry assay was used as described in Idziorek et al., 1995 J. Immunol. Methods, 185, 249-258, the entire contents of which is incorporated herein by reference. The assay differentiates between live cells, dead cells, and cells undergoing apoptosis or necrosis through concurrent staining with propidium iodide (a dead cell permeable dye) and YO-PRO-1 (an apoptotic cell permeable dye). By plotting the fluorescence of the YO-PRO-1 channel against the PI channel, a pattern emerges. Healthy cells are seen in the lower lefthand corner of the plot in FIGS. 36A-36D. […] Dead cells admit both dyes and are therefore seen in the upper righthand quadrant of the image. Upon flow cytometry analysis, cells can be classified as live, apoptotic, necrotic, or dead by defining regions in the fluorescence plane corresponding to each category.
# (§2) The HCT116N and HCT116O cell lines were incubated with 0-25 μM of [Rh(HDPA)2chrysi]^3+ for 24-72 hours. After harvesting the cells and staining with both PI and YO-PRO-1, the cells were analyzed by flow cytometry to obtain raw fluorescence data. Representative data for 20 μM rhodium treatment for 72 hours are shown. YO-PRO-1 fluorescence is shown on the y-axis, and PI fluorescence is shown on the x-axis. The raw data were analyzed by gating the fluorescence events into one of four categories, depending on the fluorescence levels of the two dyes. FIGS. 37A-37B also show histograms of live, apoptotic, necrotic, and dead cells for the HCT116N and HCT116O cell lines based on the flow cytometry. Treatment with the indicated rhodium complex was either 15 or 20 µM [Rh(HDPA)2chrysi]^3+ for 72 hours.
# (§3) After 24, 48, or 72 hour incubation with the selected rhodium complex, cells were harvested from adherent culture by trypsinization and washed with cold PBS, and centrifuged at 2,000 rpm for 5 minutes. The resultant pellets were resuspended in PBS to a concentration of 10^6 cells/mL and stained with propidium iodide to a final concentration of 1 μg/mL and with YO-PRO-1 (an apoptotic cell permeable dye) to a final concentration of 200 nM for 30 minutes prior to analysis by flow cytometry.
# HCT116O cells [1] = assay: as above; conditions: for mode of cell death: YO-PRO-1 and PI, HCT116O versus HCT116N
# Description: as §1, §2, §3
# HCT116O cells [2] = assay: MTT cytotoxicity assay
# Procedure: Cytotoxicity assays were performed as described in Mosmann, 1983, J. Immunol. Methods, 65, 55-63, the entire contents of which is incorporated herein by reference. HCT116N and HCT116O cells were plated in 96-well plates at 50,000 cells/well and incubated with rhodium for the durations specified. After incubation with the indicated rhodium complexes, cells were labeled with MTT for 4 hours at 37° C. under 5% CO2 and humidified atmosphere. The resulting formazan crystals were dissolved with solubilizing reagent purchased from Roche according to the manufacturer's instructions. The dissolved formazan was quantified as the absorbance at 570 nm minus the background absorbance at 690 nm. Percent viability was determined as the ratio of the amount of formazan in the treated cells to that of the untreated cells.
# In order to elucidate the mechanism of action for the cytotoxicity caused by a metalloinsertor complex of Formula I, the MTT cytotoxicity assay was repeated in the absence and presence of the pan-caspase inhibitor Z-VAD-FMK. This inhibitor works by irreversibly binding to the active site of caspases which participate in the apoptotic pathway. […] The HCT116N and HCT116O cell lines were treated with 0-30 μM of the [Rh(HDPA)2chrysi]^3+ complex for 24-72 hours. […]
# In order to determine the mechanism of action for cytotoxicity caused by a metalloinsertor complex of Formula I, the MTT cytotoxicity assay was repeated in conjunction with a panel of poly-ADP ribose polymerase (PARP) inhibitors: DPQ, 3-AB, 4-AN, and ABT-888, as described in Costantino et al., 2001, J. Med. Chem., 44, 3786-3794; Purnell et al., 1980, Biochem. J. 185, 775-777; Banasik et al., 1992, J. Biol. Chem. 267, 1569-1575; and Donawho et al., 2007, Clin. Cancer Res., 13, 2728-2737, the entire contents of all of which are incorporated herein by reference. The HCT116N and HCT116O cell lines were treated with 0 or 20 μM of the [Rh(HDPA)2chrysi]^3+ complex for 72 hours, with or without one of the four inhibitors. The inhibitor 3,4-Dihydro-5[4-(1-piperindinyl)butoxy]-1(2H)-isoquinoline (DPQ) was added to a final concentration of 0, 25, or 50 μM; the inhibitor 3-aminobenzamide (3-AB) was added to a final concentration of 0, 2, or 3 mM; the inhibitor 4-amino-1,8-napthalimide (4-AN) was added to a final concentration of 0, 10, or 20 μM; and the inhibitor 2-((R)-2-Methylpyrrolidin-2-yl)-1H-benzimidazole-4-carboxamide (ABT-888) was added to a final concentration of 0, 5, or 10 μM. […] For example, in the case of the compound DPQ, this difference was 43±2.7% without inhibitor and 0.6±3.0% with inhibitor.
# [3] = tested on: HCT116N and HCT116O cells; assay: Cell cycle distribution flow cytometry assay (PI); conditions: 20 μM, 24 and 48 hours
# Procedure: Cells were harvested from adherent culture by trypsinization and washed with cold PBS. The resultant pellet was resuspended in PBS (chilled to 4° C.), and ice-cold ethanol was added dropwise to a final concentration of 70% (v/v), with continuous gentle agitation. Cells were fixed at 4° C. for 30 minutes and stored for up to one week. Prior to analysis, the fixed cells in 70% ethanol were diluted 1:3 in cold PBS and centrifuged at 1,400×g for 5 minutes. The resultant pellet was washed twice and resuspended in ice-cold PBS. Ribonuclease was added to a final concentration of 30 μg/mL and the cells were incubated overnight at 4° C. The next day propidium iodide was added to a final concentration of 20 μg/mL and cells were analyzed by flow cytometry. Data analysis was performed using the FloJo software package (v 8.7.1).
substance,measurement,setting,value
[Rh(HDPA)2chrysi]^3+,live cells HCT116N after treatment,HCT116N cells,54±5.1%
same,live cells HCT116O after treatment,"HCT116O cells [1]; 20 μM, 72 hours, untreated 79±3.8%",37±5.3%
same,mode of cell death,HCT116O cells [1],induces necrosis preferentially in the MMR-deficient HCT116O cell line
same,mode of cell death,HCT116O cells [1]; listed as [Rh(HDPA)2chrysi]3^+,necrotic rather than apoptotic pathway
same,change in percentage of cells in the apoptotic region,HCT116O cells [1]; either cell line,no significant change
same,caspase dependence of the selective cell death,HCT116O cells [2]; MTT with or without Z-VAD-FMK,caspase-independent
same,"number of viable HCT116O cells, % of untreated controls","HCT116O cells [2]; MTT, 20 μM, 72 hours",37±4.4%
same,"difference between percentage of viable HCT116N cells and percentage of viable HCT116O cells, with DPQ","HCT116O cells [2]; MTT, 20 μM, 72 hours, with PARP inhibitor DPQ",0.6±3.0%
same,difference between percentage of viable HCT116N cells and percentage of viable HCT116O cells,"HCT116O cells [2]; MTT, 20 μM, 72 hours, without inhibitor",43±2.7%
same,cell viability HCT116O with caspase inhibitor,"HCT116O cells [2]; MTT, 30 μM metal complex, 72 hours, with Z-VAD-FMK at 20 M (so in the source)",9.8±7.8%
same,cell viability HCT116O,"HCT116O cells [2]; MTT, 30 μM metal complex, 72 hours, without inhibitor",9.7±4.4%
same,toxicity in MMR-deficient HCT116O versus HCT116N cells at 48 hours,"HCT116O cells [2]; MTT, 48 hours",enhance toxicity in the MMR-deficient HCT116O cells
same,cell viability HCT116O without inhibitor (40 μM caspase inhibitor experiment),"HCT116O cells [2]; MTT, rhodium alone, control arm of the 40 μM Z-VAD-FMK experiment",16±10%
same,cell viability HCT116O with caspase inhibitor 40 μM,"HCT116O cells [2]; MTT, rhodium plus Z-VAD-FMK 40 μM",28±3.7%
same,effect on the cell cycle,[3],disruption of the cell cycle
